This is an account of results in US6992079B2, “Substituted 11-phenyl-dibenzazepine compounds useful for the treatment or prevention of diseases characterized by abnormal cell proliferation” (President Fellows of Harvard College, priority 1997, dated 2006).

A value given as a limit tells only on which side of the number the result lay.

Usually IC50 stands for the concentration that inhibits the measured activity by half. Read a high IC50 as lower potency.

Holding throughout (type): cell-based
For test [1], the target named is T1, Gardos channel of erythrocytes (Homo sapiens, UniProt O15554).
T1 construct: endogenous in cells; host or cells: erythrocytes
T1 sequence (O15554 whole entry): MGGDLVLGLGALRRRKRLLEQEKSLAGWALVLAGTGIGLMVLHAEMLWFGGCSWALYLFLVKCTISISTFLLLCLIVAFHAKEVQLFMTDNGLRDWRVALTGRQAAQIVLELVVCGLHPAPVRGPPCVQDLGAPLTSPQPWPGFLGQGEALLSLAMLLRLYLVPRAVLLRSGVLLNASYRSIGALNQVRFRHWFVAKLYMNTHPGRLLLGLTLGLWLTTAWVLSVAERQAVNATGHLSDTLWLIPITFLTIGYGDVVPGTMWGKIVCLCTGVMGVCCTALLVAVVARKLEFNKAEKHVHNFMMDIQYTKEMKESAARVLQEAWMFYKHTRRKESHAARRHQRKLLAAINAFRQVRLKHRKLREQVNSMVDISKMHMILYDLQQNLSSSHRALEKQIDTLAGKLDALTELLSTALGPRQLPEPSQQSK
The test is described as follows: Gardos channel assay.

A further test concerns MCF7. Put plainly: SRB antiproliferative assay. Particulars: Homo sapiens. From the text:
(§1) The cells were passaged using Trypsin (Gibco).
In general terms: The SRB assay estimates cell density from bound dye.

In a further test the test system is U118MG. The test is described as follows: SRB antiproliferative assay. The conditions noted are these: Homo sapiens, U-118-MG, U118MG (CNS), 5% FCS/5 day incubation.
From the text: as §1

A further test has as its system HEPG2. Put plainly: SRB antiproliferative assay. The conditions noted are these: Homo sapiens, HepG2, HEPG2 (Hepatocel), 5% FCS/5 day incubation.
From the text: as §1

Another test deals with HCT-15. Put plainly: SRB antiproliferative assay. The conditions noted are these: Homo sapiens, HCT-15 (Colon), 5% FCS/5 day incubation.
From the text: as §1

For another test, the system named is HT29. The test is described as follows: SRB antiproliferative assay. The conditions noted are these: Homo sapiens.
From the text: as §1

In a further test the test system is L929. The test is described as follows: SRB antiproliferative assay. Particulars: L929 (Normal mouse), 5% FCS/5 day incubation.
From the text: as §1

A further test deals with CaSki. The test is described as follows: SRB antiproliferative assay. Particulars: Homo sapiens, Ca-Ski, CaSki (Cervical), 5% FCS/5 day incubation.
From the text: as §1

In another test the test system is DU-145. Put plainly: SRB antiproliferative assay. Particulars: Homo sapiens, DU-145 (Prostate), 5% FCS/5 day incubation.
From the text: as §1

A further test deals with SK-MEL-28. The test is described as follows: SRB antiproliferative assay. The conditions noted are these: Homo sapiens, SK-MEL-28 (Melanoma), 5% FCS/5 day incubation.
From the text: as §1

The test system of the next test is ACHN. The test is described as follows: SRB antiproliferative assay. The conditions noted are these: Homo sapiens, ACHN (Renal), 5% FCS/5 day incubation.
From the text: as §1

Another test deals with HUVEC. The test is described as follows: SRB antiproliferative assay. Particulars: HUVEC (Normal human), 5% FCS/5 day incubation.
From the text: as §1

Another test deals with A549. The test is described as follows: SRB antiproliferative assay. The conditions noted are these: Homo sapiens.
From the text: as §1

In the next test the test system is GM. The test is described as follows: SRB antiproliferative assay. The conditions noted are these: GM (Normal human), 5% FCS/5 day incubation.
From the text: as §1

The subject of another test is MDA-MB-23. The test is described as follows: SRB antiproliferative assay. The conditions noted are these: Homo sapiens, MDA-MB-23.
From the text: as §1

Another test relates to HeLa. Put plainly: SRB antiproliferative assay. Particulars: Homo sapiens, HeLa (Cervical), 5% FCS/5 day incubation.
From the text: as §1

Another test relates to HTB174. Put plainly: SRB antiproliferative assay. Particulars: Homo sapiens, HTB174 (Lung), 5% FCS/5 day incubation.
From the text: as §1

The next test deals with MMRU. Put plainly: SRB antiproliferative assay. Particulars: Homo sapiens.
From the text: as §1

`CN1Cc2ccccc2C(c2ccccc2Cl)c2ccccc21` (stereo not shown) [Compound 29] came in with an IC50 in test [1] of 414 to 433 nM.

Turning to `COc1cc([C@@H]2c3cc4c(cc3[C@@H](O[C@@H]3O[C@@H]5CO[C@@H](C)O[C@H]5[C@H](O)[C@H]3O)[C@H]3COC(=O)[C@H]23)OCO4)cc(OC)c1O` [VP-16, Etoposide, reference compound], the half-inhibitory concentration (IC50) in the test on MCF7 (MCF7, MCF7 (Breast), 5% FCS/5 day incubation) was less than 1250 nM; in the test on MCF7 (MCF7, MCF7, 2% FCS/3 days), less than 2500 nM; with U118MG, 2200 nM; with HEPG2, less than 1250 nM; in the test on HCT-15, 1300 nM; in the test with HT29 (HT-29, HT29 (Colon), 5% FCS/5 day incubation), less than 1250 nM. In addition, the IC50 in the test on HT29 (HT-29, HT29, 2% FCS/3 days) is 20000 nM; in the test on L929, less than 1250 nM; in the test with CaSki, 1800 nM; in the test on DU-145, less than 1250 nM; in the test on SK-MEL-28 it was less than 1250 nM; in the test with ACHN it was less than 1250 nM. Also, the IC50 in the test on HUVEC was less than 1250 nM; in the test on A549 (A549, A549 (Lung), 5% FCS/5 day incubation), less than 1250 nM; in the test on A549 (A549, A549, 2% FCS/3 days), 2300 nM; in the test with GM, 1400 nM; with MDA-MB-23, less than 1250 nM; in the test on HeLa, less than 1250 nM. The IC50 with HTB174 was less than 1250 nM; with MMRU (MMRU (Melanoma), 5% FCS/5 day incubation), less than 1250 nM; in the test on MMRU (MMRU, 2% FCS/3 days), less than 2500 nM.
